These results are taken from patent US10227347B2, “Purinyl-N-hydroxyl pyrimidine formamide derivative, preparation methods and uses thereof” (Guizhou Bailing Group Pharmaceutical CO., LTD., priority 2015, dated 2019).

Read-outs that look alike come from different tables or passages of the source.

The target in one data set is T1, PI3Kγ (Homo sapiens, UniProt P48736).
T1 construct: purchased Invitrogen PR8641C
As to the kind of experiment: PI3Kγ activity inhibition (ADP-Glo). The class given is biochemical. To be noted: Table 1, graded. The method, then: (§1) Detecting the inhibition capability of the compound to PI3Kβ and PI3Kγ activities with ADP-Glo (purchased from Promege Company; Catalog No.: v9102/3). […] The reaction system also comprises substrates as PIP2 and ATP. The reaction buffer system comprises 50 mM HEPES, 3 mM MgCl2, 1 mM EGTA, 100 mM NaCl, 0.03% CHAPS and 2 mM DTT. The pH value of the reaction buffer is 7.5. […] Mixing the system evenly for incubation under ambient temperature for 1 h; getting a new 384 well plate and transferring 5 μL reaction liquid from the each well of original 384 well plate to the corresponding wells of the new 384 well plate; adding 5 μL ADP-Glo which has been preheated to ambient temperature into each new reaction well to terminate the reaction; oscillating it slowly in dark place for 40 min's incubation after it is mixed evenly; adding 10 μL testing liquid in each reaction well, oscillating it for 1 min to mix evenly and incubating it for 1 h, then measuring the fluorescence intensity with a microplate reader and analyzing the result data with the software GraphPad Prism.
(§2) Calculating the value of IC50 as per the formula: Y=background data+(top data−background data)/(1+10^((Log IC50−X)*rate of curve))
(§3) Where, Y refers to the inhibition ratio (%) and X refers to the compound concentration.
On the technique in general: ADP-Glo turns the ADP formed in a reaction into a luminescent signal.

The target in another data set is T2, PI3Kδ (Homo sapiens, UniProt O00329).
T2 construct: purchased Millipore 14-604-K
As to the kind of experiment: PI3Kδ activity inhibition (Kinase-Glo). The class given is biochemical. Conditions: Table 1, graded. The method, then: Detecting the inhibition capability of the compound to PI3Kα and PI3Kδ activities with Kinase-Glo (purchased from Promege Company; Catalog No.: V3771). […] The reaction system also comprises substrates as PIP2 (4, 5-diphosphoinositide, purchased from Life Technologies Company) and ATP (triphosadenine, purchased from Sigma Company). The reaction buffer system comprises 50 mM HEPES (4-hydroxyethylpiperazine ethane sulfonic acid), 3 mM MgCl2, 1 mM EGTA (ethylene glycol bis(2-amino ethylether)quadrol), 100 mM NaCl, 0.03% CHAPS (3-[3-(cholamidopropyl)dimethylamino]-1-propanesulfonic acid), 2 mM DTT (dithiothreitol). The pH value of the reaction buffer is 7.5. […] Mixing the system evenly for incubation under ambient temperature (for 1 h in PI3Kα test and for 2 h in PI3Kδ test). After incubation, adding 10 μL Kinase-Glo which has been preheated to ambient temperature into each reaction well to terminate the reaction; shaking it in dark place for 15 min after it is mixed evenly, then measuring the fluorescence intensity with a microplate reader and analyzing the result data with the software GraphPad Prism.
as §2, §3

For the next data set, the target named is T3, HDAC1 (Homo sapiens, UniProt Q13547).
T3 construct: purchased BPS Bioscience
T3 sequence (Q13547 whole entry, species assumed): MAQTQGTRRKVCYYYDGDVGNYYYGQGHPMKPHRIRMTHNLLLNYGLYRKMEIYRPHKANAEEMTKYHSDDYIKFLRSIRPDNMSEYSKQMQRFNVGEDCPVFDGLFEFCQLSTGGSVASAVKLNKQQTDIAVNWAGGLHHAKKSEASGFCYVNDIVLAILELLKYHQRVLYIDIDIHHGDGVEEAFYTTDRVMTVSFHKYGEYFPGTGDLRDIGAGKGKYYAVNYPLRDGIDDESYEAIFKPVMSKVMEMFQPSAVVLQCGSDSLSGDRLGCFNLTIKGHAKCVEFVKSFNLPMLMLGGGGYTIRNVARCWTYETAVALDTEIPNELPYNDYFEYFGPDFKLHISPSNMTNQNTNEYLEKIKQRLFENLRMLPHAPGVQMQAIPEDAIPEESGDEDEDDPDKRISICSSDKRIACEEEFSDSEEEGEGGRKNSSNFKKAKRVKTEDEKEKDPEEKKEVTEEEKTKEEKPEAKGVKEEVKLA
As to the kind of experiment: In vitro HDAC1 enzymatic activity inhibition (Lys-Ac-AMC substrate). The class given is biochemical. Conditions: Table 1, graded; read-out: HDAC1 IC50. The method in brief:
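Fluorogenic Lys-Ac-AMC deacetylation with trypsin development in modified Tris buffer pH 7.0; compound preincubated with enzyme 15 min at ambient temperature before substrate addition. Final HDAC1 6 nM, trypsin 0.05 μM, Ac-peptide 8 μM. IC50 from four-parameter fit of % inhibition versus concentration.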

The target in another data set is T4, PI3Kβ (Homo sapiens, UniProt P42338).
T4 construct: purchased Millipore 14-603-K
T4 sequence (P42338 whole entry, species assumed): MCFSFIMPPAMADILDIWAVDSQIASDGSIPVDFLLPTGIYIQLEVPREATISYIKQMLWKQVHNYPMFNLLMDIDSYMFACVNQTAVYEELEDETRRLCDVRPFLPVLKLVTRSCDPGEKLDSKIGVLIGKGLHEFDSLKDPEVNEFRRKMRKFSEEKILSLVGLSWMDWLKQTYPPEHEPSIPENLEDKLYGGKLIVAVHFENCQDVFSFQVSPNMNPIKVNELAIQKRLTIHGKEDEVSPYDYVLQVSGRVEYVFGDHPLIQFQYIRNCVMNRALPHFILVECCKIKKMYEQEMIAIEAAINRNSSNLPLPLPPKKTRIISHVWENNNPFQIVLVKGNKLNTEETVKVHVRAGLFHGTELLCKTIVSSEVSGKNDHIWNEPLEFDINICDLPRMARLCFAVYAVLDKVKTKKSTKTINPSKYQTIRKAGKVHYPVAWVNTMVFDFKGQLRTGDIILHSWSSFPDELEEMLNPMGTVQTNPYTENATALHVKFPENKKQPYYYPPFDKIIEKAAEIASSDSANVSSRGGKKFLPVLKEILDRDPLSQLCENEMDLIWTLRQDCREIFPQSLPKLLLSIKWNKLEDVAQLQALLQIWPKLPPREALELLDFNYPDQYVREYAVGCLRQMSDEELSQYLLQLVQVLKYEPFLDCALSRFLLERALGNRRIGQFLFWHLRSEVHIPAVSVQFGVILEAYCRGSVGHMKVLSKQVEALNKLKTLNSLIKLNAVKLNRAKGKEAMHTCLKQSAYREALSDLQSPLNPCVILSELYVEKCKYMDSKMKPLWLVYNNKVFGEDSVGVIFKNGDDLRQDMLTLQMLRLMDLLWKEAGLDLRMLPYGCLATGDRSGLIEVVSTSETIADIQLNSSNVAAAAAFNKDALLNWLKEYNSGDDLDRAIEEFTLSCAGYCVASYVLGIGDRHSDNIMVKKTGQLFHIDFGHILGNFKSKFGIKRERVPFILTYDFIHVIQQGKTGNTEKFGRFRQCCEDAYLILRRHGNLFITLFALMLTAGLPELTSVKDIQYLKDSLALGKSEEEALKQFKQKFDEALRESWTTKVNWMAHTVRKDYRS
T4 sequence (P27986 whole entry partner, species assumed): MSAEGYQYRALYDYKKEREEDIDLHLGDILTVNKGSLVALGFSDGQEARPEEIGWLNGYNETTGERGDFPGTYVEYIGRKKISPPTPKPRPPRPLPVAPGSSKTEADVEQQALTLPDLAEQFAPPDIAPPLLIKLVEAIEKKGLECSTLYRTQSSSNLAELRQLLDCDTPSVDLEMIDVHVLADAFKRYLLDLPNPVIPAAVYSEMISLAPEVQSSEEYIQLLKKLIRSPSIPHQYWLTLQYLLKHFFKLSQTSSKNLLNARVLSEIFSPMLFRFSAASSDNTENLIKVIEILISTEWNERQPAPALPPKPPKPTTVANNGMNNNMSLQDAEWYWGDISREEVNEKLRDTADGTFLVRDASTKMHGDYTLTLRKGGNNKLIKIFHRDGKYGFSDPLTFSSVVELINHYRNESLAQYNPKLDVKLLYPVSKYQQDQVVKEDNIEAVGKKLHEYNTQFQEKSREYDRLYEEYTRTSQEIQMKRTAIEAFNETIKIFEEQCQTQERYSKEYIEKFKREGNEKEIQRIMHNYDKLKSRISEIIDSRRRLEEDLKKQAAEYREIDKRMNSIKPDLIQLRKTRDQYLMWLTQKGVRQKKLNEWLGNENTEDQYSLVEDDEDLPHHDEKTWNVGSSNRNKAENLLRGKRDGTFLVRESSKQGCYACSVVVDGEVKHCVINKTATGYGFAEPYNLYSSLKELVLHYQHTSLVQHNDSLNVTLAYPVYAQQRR
The data set can be described thus: PI3Kβ activity inhibition (ADP-Glo). The class given is biochemical. To be noted: Table 1, graded. The method, then: as §1, §2, §3

For data set [1], the system named is hct116 cells (colon cancer). The data set can be described thus: Cell proliferation inhibition, hct116 (MTT). The class given is cell-based. Conditions: Homo sapiens, HCT-116. In outline:
(§4)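 Cells seeded at 2000-3000/well; adherent lines dosed after attachment, then 96 h incubation with compound. Viability read by MTT for solid-tumour lines (HCT116, A2780s) and CCK-8 for MV4-11; IC50 from four-parameter logistic fit of inhibition ratio versus concentration.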

The subject of data set [2] is A2780s cells (ovarian cancer). The data set can be described thus: Cell proliferation inhibition, A2780s (MTT). The class given is cell-based. Conditions: Homo sapiens. In outline:
as §4

For a further data set, the target named is T5, mTOR (Homo sapiens, UniProt P42345).
T5 construct: purchased Millipore 14-770
T5 sequence (P42345 1362-2549 limits assumed): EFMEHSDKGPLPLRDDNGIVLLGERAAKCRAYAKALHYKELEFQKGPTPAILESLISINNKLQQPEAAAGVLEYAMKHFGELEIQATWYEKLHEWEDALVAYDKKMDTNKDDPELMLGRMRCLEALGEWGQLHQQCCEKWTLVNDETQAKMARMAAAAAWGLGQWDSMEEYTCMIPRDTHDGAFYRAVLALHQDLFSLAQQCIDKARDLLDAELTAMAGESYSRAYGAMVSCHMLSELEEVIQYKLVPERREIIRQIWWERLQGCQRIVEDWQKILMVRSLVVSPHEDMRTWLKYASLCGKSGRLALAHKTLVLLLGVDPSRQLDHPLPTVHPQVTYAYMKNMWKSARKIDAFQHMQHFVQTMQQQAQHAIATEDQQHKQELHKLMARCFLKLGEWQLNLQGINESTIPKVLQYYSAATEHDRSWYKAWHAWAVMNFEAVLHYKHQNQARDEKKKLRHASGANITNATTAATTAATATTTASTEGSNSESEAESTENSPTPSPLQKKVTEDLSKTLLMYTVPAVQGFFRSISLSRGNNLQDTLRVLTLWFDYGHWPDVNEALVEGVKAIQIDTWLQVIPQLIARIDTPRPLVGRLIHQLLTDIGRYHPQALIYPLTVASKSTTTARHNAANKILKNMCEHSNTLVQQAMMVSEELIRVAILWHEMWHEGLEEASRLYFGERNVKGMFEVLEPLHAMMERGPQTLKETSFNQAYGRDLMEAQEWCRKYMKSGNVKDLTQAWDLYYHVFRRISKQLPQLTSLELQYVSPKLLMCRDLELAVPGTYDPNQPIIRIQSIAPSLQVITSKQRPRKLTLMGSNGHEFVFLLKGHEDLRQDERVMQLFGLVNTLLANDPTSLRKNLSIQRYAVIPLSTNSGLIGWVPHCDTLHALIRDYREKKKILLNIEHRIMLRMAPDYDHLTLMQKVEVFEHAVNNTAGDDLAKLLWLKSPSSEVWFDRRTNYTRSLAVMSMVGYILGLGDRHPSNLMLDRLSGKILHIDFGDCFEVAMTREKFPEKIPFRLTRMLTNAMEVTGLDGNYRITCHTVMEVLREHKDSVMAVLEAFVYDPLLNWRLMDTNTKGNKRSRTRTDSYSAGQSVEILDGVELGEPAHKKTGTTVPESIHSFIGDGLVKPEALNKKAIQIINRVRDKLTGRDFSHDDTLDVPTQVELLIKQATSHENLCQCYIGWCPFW
As to the kind of experiment: mTOR activity inhibition (ULight-4E-BP1 peptide). The class given is biochemical. To be noted: Table 1, graded. The method, then: mTOR protein is purchased from Millipore Company (Catalog No.: 14-770). The reaction buffer system comprises 50 mM HEPES, 10 mM MgCl2, 1 mM EGTA, 3 mM […], 0.01% Tween-20 (purchased from Chengdu Kelong Chemical Regent Factory) and 2 mM DTT. The pH value of the reaction buffer is 7.5. Preparing 10 μL reaction system in corresponding wells of the 384 well plate, which contains the compositions as: the compound with designed concentration (or blank control), mTOR protein (with the concentration of 2.5 nM), ULight-4E-BP1 (containing the 37th and the 46th threonine residues, Thr37/46) peptide (purchased from PE Company, Catalog No.: TRF0128-M) and ATP substrates (ULight-4E-BP1 peptide, with the concentration of 50 nM and ATP, with the concentration of […]). Mixing it evenly for incubation under ambient temperature for 1 h; adding 10 μL testing liquid containing EDTA (ethylenediaminetetraacetic acid) and Eu-anti-phosphorylation-4E-BP1 (Thr37/46) antibody (purchased from PE Company, Catalog No.: TRF0216-M) into the reaction wells (after the testing liquid is added, the concentration of EDTA is 8 mM and the concentration of Eu-phosphorylation-4E-BP1 antibody is 2 nM); mixing it evenly and incubating it for 1 h under ambient temperature, then measuring the fluorescence intensity with a microplate reader and analyzing the result data with the software GraphPad Prism.
as §2, §3

Data set [3] deals with MV4-11 cells (acute myeloid leukemia). As to the kind of experiment: Cell proliferation inhibition, MV4-11 (cck-8). Conditions: Homo sapiens. The class given is cell-based. In outline:
as §4

The target of another data set is T6, PI3Kα (Homo sapiens, UniProt P42336).
T6 construct: purchased Invitrogen PV4788
T6 sequence (P42336 whole entry, species assumed): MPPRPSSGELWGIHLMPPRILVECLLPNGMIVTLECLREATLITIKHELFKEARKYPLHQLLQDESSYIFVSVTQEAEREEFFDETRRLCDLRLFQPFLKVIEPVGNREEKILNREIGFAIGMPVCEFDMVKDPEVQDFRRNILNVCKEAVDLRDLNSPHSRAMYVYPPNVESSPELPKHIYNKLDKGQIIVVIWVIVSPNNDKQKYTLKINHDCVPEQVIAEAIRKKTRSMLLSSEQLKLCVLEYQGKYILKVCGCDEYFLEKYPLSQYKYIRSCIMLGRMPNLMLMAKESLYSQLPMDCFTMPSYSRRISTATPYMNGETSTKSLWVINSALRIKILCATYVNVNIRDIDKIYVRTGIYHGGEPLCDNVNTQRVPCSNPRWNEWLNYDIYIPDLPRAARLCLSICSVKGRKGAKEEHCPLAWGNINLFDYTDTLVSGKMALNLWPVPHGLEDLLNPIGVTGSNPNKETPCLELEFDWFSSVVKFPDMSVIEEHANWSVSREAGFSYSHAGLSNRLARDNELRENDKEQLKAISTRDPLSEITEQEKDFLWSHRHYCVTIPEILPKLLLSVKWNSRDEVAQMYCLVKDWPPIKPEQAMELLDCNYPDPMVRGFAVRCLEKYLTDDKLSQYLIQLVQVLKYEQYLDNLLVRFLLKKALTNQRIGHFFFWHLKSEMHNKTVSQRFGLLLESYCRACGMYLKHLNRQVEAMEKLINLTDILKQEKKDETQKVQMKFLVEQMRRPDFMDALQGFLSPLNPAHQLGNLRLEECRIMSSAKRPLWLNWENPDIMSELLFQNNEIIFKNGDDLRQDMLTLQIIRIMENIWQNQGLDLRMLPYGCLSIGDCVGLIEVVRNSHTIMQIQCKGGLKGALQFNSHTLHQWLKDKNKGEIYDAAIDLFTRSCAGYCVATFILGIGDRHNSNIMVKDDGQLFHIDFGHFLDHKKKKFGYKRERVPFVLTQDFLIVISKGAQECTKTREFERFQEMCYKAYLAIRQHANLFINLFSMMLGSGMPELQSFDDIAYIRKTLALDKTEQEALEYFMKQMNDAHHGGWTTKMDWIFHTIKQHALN
T6 sequence (P27986 whole entry partner, species assumed): as the sequence (P27986 whole entry partner, species assumed) above
The data set can be described thus: PI3Kα activity inhibition (Kinase-Glo). The class given is biochemical. The method in brief: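 Kinase-Glo luminescence read-out of remaining ATP after PI3K reaction with PIP2 and ATP substrates in 50 mM HEPES pH 7.5, 3 mM MgCl2, 1 mM EGTA, 100 mM NaCl, 0.03% CHAPS, 2 mM DTT. Incubated at ambient temperature, 1 h for PI3Kα, 2 h for PI3Kδ. IC50 from four-parameter fit of % inhibition versus concentration.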

The test system of data set [4] is MV4-11 subcutaneous tumor. Conditions: 50 mg/kg i.p., once per two days, 22 days. The source says: During drug administration, measuring the weight and gross tumor volume of the mice per 2 days and keeping a record. The calculation formula is as V=π/6×A^2×B, where, where, V=gross tumor volume (mm^3), A=tumor width (mm) and B=tumor length (mm). Observing and keeping a record for the survival condition of the tested animals. After drug discontinuance, killing the mice through cervical dislocation and peeling off their tumors as per the operation specification of animal experiment. Evaluating the inhibition capability of the compounds to tumor activities by calculating the tumor inhibitory rate with the formula as: tumor inhibitory rate=(1−tumor weight of treatment group/tumor weight of control group)×100%. Analyzing and comparing the difference between each treatment group and control group with the method of t-test. The grading of significance level of difference is: ***, P<0.001; **, P<0.01; *, P<0.05; no statistical significance (ns), P>0.05.

Data set [5] has as its system human colon cancer hct116 subcutaneous tumor. As to the kind of experiment: Subcutaneous tumor model, human colon cancer hct116. Conditions: 50 mg/kg, once per 2 days, intraperitoneal.
In data set [6] the test system is acetylated Ac-α-tubulin in A2780s cells. The data set can be described thus: Induction of α-tubulin acetylation in A2780s cells (cytoblot). The class given is cell-based. Conditions: Homo sapiens, 6 h treatment, read-out: Ac-Tub EC50. The procedure:
(§5) Specific operation: After the treatment, washing each well once with 50-100 μl of cold TBS buffer [with the composition as 20 mM Tris (trismetyl aminomethane), pH7.5] and fixing it with 100 μL of 4% pre-cooled paraformaldehyde at 4° C. for 1 h; after paraformaldehyde is washed off, adding 50 μL of pre-cooled methyl alcohol in each well and evenly spreading at 4° C. for 5 min; after methyl alcohol is washed off, washing it once with the TBS buffer containing 3% skim milk powder and adding 50 μL of antibody fluid, oscillating it slightly at 4° C. and incubating overnight. For determination of Ac—H3, the antibody fluid is prepared by diluting Ac—H3 antibody and horseradish peroxide coupled secondary antibody to a same system with the TBS buffer containing 3% skim milk powder (Ac—H3 antibody is purchased from Santa Cruz Company and diluted at a ratio of 1:100; horseradish peroxide coupled secondary antibody is purchased from Jackson Company and diluted at a ratio of 1:2000); for determination of acetylated Ac-α-tubulin, the antibody fluid is prepared by diluting Ac-α-tubulin antibody and horseradish peroxide coupled secondary antibody to a same system with the TBS buffer containing 3% skim milk powder (Ac-α-tubulin antibody is purchased from Santa Cruz Company and diluted at a ratio of 1:100; horseradish peroxide coupled secondary antibody is purchased from Jackson Company and diluted at a ratio of 1:2000).
(§6) Calculating the value of IC50 as per the formula: Y=background data+(top data−background data)/(1+10^((Log EC50−X)*rate of curve)) Where, Y refers to the activating rate (%) and X refers to the compound concentration.

The subject of data set [7] is acetylated histone H3 (Ac-H3) in A2780s cells. As to the kind of experiment: Induction of histone H3 acetylation in A2780s cells (cytoblot). The class given is cell-based. Conditions: Homo sapiens, 6 h treatment. The method, then: as §5, §6
[8] abbreviates: 96 h incubation, read-out: Proliferation IC50, Colon cancer hct116.
Where [9] appears, read: read-out: IC50 to proliferation of hct116 cells.
The mark [10] stands for this setting: 96 h incubation, read-out: Proliferation IC50, Ovarian cancer A2780s.
Where [11] appears, read: read-out: IC50 to proliferation of A2780s cells.
Setting [12] is: 96 h incubation, read-out: Proliferation IC50, Acute myeloid leukemia MV4-11.
Where [13] appears, read: read-out: IC50 to proliferation of MV4-11 cells.
The mark [14] stands for this setting: Table 1, graded, read-out: PI3Kα IC50.
[15] abbreviates: read-out: inhibition value IC50 to the activity of PI3Kα.

With `Cc1ncc(-c2nc(N3CCOCC3)c3nc(CN(C)c4ncc(C(=O)NO)cn4)n(C)c3n2)cn1` [CLJ-13], the IC50 was 100 to 1000 nM against PI3Kγ; 100 to 1000 nM on PI3Kδ; less than 100 nM on HDAC1; 100 to 1000 nM against PI3Kβ; 0.1 to 10 nM in [1] (setting [8]); 0.1 to 10 nM in [1] (setting [9]). The IC50 in data set [2] (setting [10]) is 0.1 to 10 nM; in data set [2] (setting [11]), 0.1 to 10 nM; on mTOR it was 100 to 1000 nM; in data set [3] (setting [12]), 0.1 to 10 nM; in [3] (setting [13]), 0.1 to 10 nM; at PI3Kα (setting [14]), less than 100 nM. For the same compound, the IC50 on PI3Kα (setting [15]) is less than 100 nM.
As to `O=C(CCCCCCC(=O)Nc1ccccc1)NO` [SAHA, vorinostat, reference compound], the “Final survival condition (survived individuals/total individuals)” value in data set [4] is recorded as 6/6. The Death in data set [5] is on record as 0/6.
Take `COc1ccc(-c2nc(N3CCOCC3)c3sc(CN(C)c4ncc(C(=O)NO)cn4)cc3n2)cn1` [CUDC907, reference compound]: the concentration for a half-maximal effect (EC50) (usually the concentration giving half of the maximal effect) in data set [6] was more than 200 nM; in [7], 100 to 200 nM. The same compound gave an IC50 on mTOR of 1000 to 10000 nM.
For `CN(Cc1nc2c(N3CCOCC3)nc(-c3cnc4ccccc4c3)nc2n1C)c1ncc(C(=O)NO)cn1` [CLJ-14, 2-(((2-(quinoline-3-yl)-9-methyl-6-morpholine-9H-purine-8-yl))methyl(methyl)amino)-N-hydroxyl pyrimidine-5-formamide], the IC50 is more than 10000 nM at PI3Kγ; more than 10000 nM at PI3Kδ; less than 100 nM on HDAC1; more than 10000 nM against PI3Kβ; 10 to 100 nM in [1] (setting [8]); 0.1 to 10 nM in [2] (setting [10]). Moreover, the IC50 is more than 10000 nM at mTOR, 0.1 to 10 nM in data set [3] (setting [12]) and more than 10000 nM on PI3Kα (setting [14]).
As to `CNc1ncc(-c2nc(N3CCOCC3)c3nc(CN(C)c4ncc(C(=O)NO)cn4)n(C)c3n2)cn1` [CLJ-12, 2-(((2-(4-aminemethylpyrimidine)-9-methyl-6-morpholine-9H-purine-8-yl))methyl(methyl)amino)-N-hydroxyl pyrimidine-5-formamide], the IC50 against PI3Kγ was 100 to 1000 nM; at PI3Kδ, 100 to 1000 nM; at HDAC1, less than 100 nM; against PI3Kβ it was 100 to 1000 nM; in [1] (setting [8]) it was 0.1 to 10 nM; in data set [1] (setting [9]), 0.1 to 10 nM. The IC50 in [2] (setting [10]) was 0.1 to 10 nM; in [2] (setting [11]) it was 0.1 to 10 nM; at mTOR it was 100 to 1000 nM; in [3] (setting [12]) it was 0.1 to 10 nM; in data set [3] (setting [13]), 0.1 to 10 nM; at PI3Kα (setting [14]), less than 100 nM. In addition, the IC50 on PI3Kα (setting [15]) was less than 100 nM.
